According to patent publication US20250230193A1, “CYCLIC COMPOUND HAVING SELECTIVE KRAS INHIBITORY EFFECT ON HRAS AND NRAS” (CHUGAI SEIYAKU KABUSHIKI KAISHA, priority 2022, published 2025):
Where a SMILES comes first, the peptide text is derived from it. Bridges are numbered along the chain shown (N, C = ends). [ ]: non-standard residue; d: D form. The star is where a group is joined. hPhe(3-Cl-4-CF3) = N[C@@H](CCc1ccc(C(F)(F)F)c(Cl)c1)C(=O)O; NPrPhe(4-CF3) = CCCN[C@@H](Cc1ccc(C(F)(F)F)cc1)C(=O)O; NMeGly(cPent) = CN[C@H](C(=O)O)C1CCCC1; Aze(3S-Me) = C[C@H]1CN[C@@H]1C(=O)O; NMeD = CN[C@@H](CC(=O)O)C(=O)O; NMeL = CN[C@@H](CC(C)C)C(=O)O; Morpholide = C1CN(*)CCO1; Ac5c = NC1(C(=O)O)CCCC1; Aze = O=C(O)[C@@H]1CCN1; Sar = CNCC(=O)O

Assays:
[1] = biological target: GDP-bound NRAS wild-type protein (Homo sapiens, UniProt P01111); test: Binding to NRAS by surface plasmon resonance (SPR), Single Cycle Kinetics; details: for NRAS/KRAS (ratio of KD value with respect to NRAS to KD value with respect to KRAS): GDP-bound NRAS wild-type vs GDP-bound KRAS wild-type
Chain of GDP-bound NRAS wild-type protein (P01111 whole entry): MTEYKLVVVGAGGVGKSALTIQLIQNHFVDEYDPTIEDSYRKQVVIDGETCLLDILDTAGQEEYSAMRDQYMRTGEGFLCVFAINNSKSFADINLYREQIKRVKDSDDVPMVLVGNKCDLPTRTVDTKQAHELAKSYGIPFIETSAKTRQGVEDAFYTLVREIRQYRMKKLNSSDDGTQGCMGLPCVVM

[2] = biological target: GDP-bound HRAS wild-type protein (Homo sapiens, UniProt P01112); test: Binding to HRAS by surface plasmon resonance (SPR), Single Cycle Kinetics; details: for HRAS/KRAS (ratio of KD value with respect to HRAS to KD value with respect to KRAS): GDP-bound HRAS wild-type vs GDP-bound KRAS wild-type
Chain of GDP-bound HRAS wild-type protein (P01112 whole entry): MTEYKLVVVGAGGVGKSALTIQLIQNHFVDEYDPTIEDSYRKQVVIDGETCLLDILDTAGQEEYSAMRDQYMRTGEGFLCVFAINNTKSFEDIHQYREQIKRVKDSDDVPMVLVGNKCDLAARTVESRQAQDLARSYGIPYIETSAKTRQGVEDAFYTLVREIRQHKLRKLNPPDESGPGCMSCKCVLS

CCCO[C@H](C)[C@@H]1NC(=O)[C@H](COCC)N(C)C(=O)C[C@@H](C(=O)N(C)CC)N(C)C(=O)[C@H](C2CCCC2)N(C)C(=O)C2(CC(C)(C)C2)NC(=O)[C@@H]2C[C@@H](OCC)CN2C(=O)[C@H](CCc2cc(F)c(C(F)(F)F)c(F)c2)NC(=O)CN(C)C(=O)[C@H](Cc2ccc(C)cc2)N2CC/C=C\C[C@@H](C2=O)N(C)C(=O)[C@@H]2CCCN2C1=O [PP2436]
NRAS/KRAS (ratio of KD value with respect to NRAS to KD value with respect to KRAS) ([1]; SPR): A (a compound having 10 or more and less than 20 is denoted as A) | HRAS/KRAS (ratio of KD value with respect to HRAS to KD value with respect to KRAS) ([2]; SPR): A (a compound having 10 or more and less than 20 is denoted as A)

CCC[C@H]1C(=O)N[C@@H](CC(C)C)C(=O)N2C[C@@H](OC)C[C@H]2C(=O)N(C)[C@H]2C/C=C\CCN(C2=O)[C@@H](Cc2ccc(C)cc2)C(=O)N(C)CC(=O)N[C@@H](CCc2cc(F)c(C(F)(F)F)c(F)c2)C(=O)N2C[C@H](OCC)C[C@H]2C(=O)NC2(CC(C)(C)C2)C(=O)N(C)[C@@H](C2CCCC2)C(=O)N(C)[C@H](C(=O)N(C)C)CC(=O)N1C [PP2553]
NRAS/KRAS (ratio of KD value with respect to GDP-bound NRAS wild-type protein to KD value with respect to KRAS) ([1]; class symbols): A (a compound having 10 or more and less than 20 is denoted as A) | HRAS/KRAS (ratio of KD value with respect to GDP-bound HRAS wild-type protein to KD value with respect to KRAS) ([2]; class symbols): B (a compound having 3 or more and less than 10 is denoted as B)

CCC(CC)[C@H]1C(=O)N(C)[C@H](C(=O)N(C)C)CC(=O)N(C)[C@@H](COC)C(=O)N[C@@H]([C@@H](C)CC)C(=O)N(C)CC(=O)N(C)[C@H]2C/C=C\CCN(C2=O)[C@@H](Cc2ccc(C(F)(F)F)cc2)C(=O)N(C)CC(=O)N[C@@H](CCc2ccc(Cl)c(Cl)c2)C(=O)N2C[C@H](OC(C)C)C[C@H]2C(=O)NC2(CC(C)(C)C2)C(=O)N1C [PP2533]
NRAS/KRAS (ratio of KD value with respect to GDP-bound NRAS wild-type protein to KD value with respect to KRAS) ([1]; class symbols): AA (a compound having 20 or more is denoted as AA) | HRAS/KRAS (ratio of KD value with respect to GDP-bound HRAS wild-type protein to KD value with respect to KRAS) ([2]; class symbols): A (a compound having 10 or more and less than 20 is denoted as A)

CCCN1C(=O)CN(C)C(=O)CN(C)C(=O)[C@H]([C@@H](C)CC)NC(=O)[C@H](CC(C)C)N(C)C(=O)C[C@@H](C(=O)N2CCOCC2)N(C)C(=O)[C@H](C2CCCC2)N(C)C(=O)C2(CCCC2)NC(=O)[C@@H]2CCN2C(=O)[C@H](CCc2ccc(C(F)(F)F)c(Cl)c2)NC(=O)CN(C)C(=O)[C@@H]1Cc1ccc(C(F)(F)F)cc1 [PP0260] ([NMeL]I[Sar][Sar][NPrPhe(4-CF3)][Sar][hPhe(3-Cl-4-CF3)][Aze][Ac5c][NMeGly(cPent)][NMeD]-Morpholide; lactam N-11)
NRAS/KRAS (ratio of KD for GDP-bound NRAS wild-type to KD for KRAS) ([1]; SPR): B (a compound having 3 or more and less than 10 is denoted as B) | HRAS/KRAS (ratio of KD for GDP-bound HRAS wild-type to KD for KRAS) ([2]; SPR): C (A compound having a KD ratio of 0.1 or more and less than 3 is denoted as C)

CC[C@H](C)[C@@H]1NC(=O)[C@H](CC(C)C)N(C)C(=O)C[C@@H](C(=O)N2CCOCC2)N(C)C(=O)[C@H](C2CCCC2)N(C)C(=O)C2(CCOCC2)NC(=O)[C@@H]2CCCN2C(=O)[C@H](CCc2cc(F)c(C(F)(F)F)c(F)c2)NC(=O)CN(C)C(=O)[C@H](Cc2ccc(C(F)(F)F)cc2)N2CCCC[C@@H](C2=O)N(C)C(=O)CN(C)C1=O [PP0564]
NRAS/KRAS (ratio of KD value with respect to GDP-bound NRAS wild-type protein to KD value with respect to KRAS) ([1]; SPR): B (a compound having 3 or more and less than 10 is denoted as B) | HRAS/KRAS (ratio of KD value with respect to GDP-bound HRAS wild-type protein to KD value with respect to KRAS) ([2]; SPR): B (a compound having 3 or more and less than 10 is denoted as B)

CCCN1C(=O)CN(C)C(=O)[C@@H]2[C@@H](C)CN2C(=O)[C@H]([C@@H](C)CC)NC(=O)[C@H](CC(C)C)N(C)C(=O)C[C@@H](C(=O)N2CCOCC2)N(C)C(=O)[C@H](C2CCCC2)N(C)C(=O)C2(CCCC2)NC(=O)[C@@H]2CCCN2C(=O)[C@H](CCc2ccc(C(F)(F)F)c(Cl)c2)NC(=O)CN(C)C(=O)[C@@H]1Cc1ccc(C(F)(F)F)cc1 [PP0258] ([NMeL]I[Aze(3S-Me)][Sar][NPrPhe(4-CF3)][Sar][hPhe(3-Cl-4-CF3)]P[Ac5c][NMeGly(cPent)][NMeD]-Morpholide; lactam N-11)
NRAS/KRAS (ratio of KD for GDP-bound NRAS wild-type to KD for KRAS) ([1]; SPR): B (a compound having 3 or more and less than 10 is denoted as B) | HRAS/KRAS (ratio of KD for GDP-bound HRAS wild-type to KD for KRAS) ([2]; SPR): C (A compound having a KD ratio of 0.1 or more and less than 3 is denoted as C)

C=CCN1CC(=O)N(C)[C@H]2C/C=C\CCN(C2=O)[C@@H](Cc2ccc(C(F)(F)F)cc2)C(=O)N(C)CC(=O)N[C@@H](CCc2cc(F)c(C(F)(F)F)c(F)c2)C(=O)N2C[C@H](OCC)C[C@H]2C(=O)NC2(CC(C)(C)C2)C(=O)N(C)[C@@H](C2CCCC2)C(=O)N(C)[C@H](C(=O)N(C)C)CC(=O)N(C)[C@@H](CCC)C(=O)N[C@@H]([C@@H](C)CC)C1=O [PP2102]
NRAS/KRAS (ratio of KD value with respect to NRAS to KD value with respect to KRAS) ([1]; SPR): A (a compound having 10 or more and less than 20 is denoted as A) | HRAS/KRAS (ratio of KD value with respect to HRAS to KD value with respect to KRAS) ([2]; SPR): A (a compound having 10 or more and less than 20 is denoted as A)
